Data taken from PubChem BioAssay (NCI).
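1) Cells in 96-well plates. 2) Compound, 48 h, 5 concentrations. 3) Linear interpolation between surrounding doses. 4) Unreached endpoint = highest concentration. The concentration for 50% growth inhibition is given as GI50. Definition used: TGI = concentration required for complete inhibition of growth.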

What follows are compounds tested on LOX IMVI melanoma (assay: inhibition of tumour cell growth, NCI panel, 48 h).
Work on `CC(=O)c1c(C)n([O-])c2cc(C)c(C)cc2[n+]1=O` yielded a TGI of over 100 µM. Compound `CCCS(=O)(=O)c1nc(NC2CC2)cc(-c2ccc3c(ccn3C3CC(C)(C)NC(C)(C)C3)c2)n1` has a GI50 of 1.67 µM and a TGI of 3.17 µM. `N#CC(C#N)=Cc1cccc(Oc2ccccc2)c1` gave a TGI of 43.6 µM. `COc1ccc(/C=C/C(=O)c2sc(-n3nc(-c4ccccc4)cc3-c3ccccc3)nc2C)cc1OC` was tested, and the TGI was 96.6 µM. Work on `COC(=O)c1c(O)ccc2[nH]c(C)c(C#N)c12` yielded a GI50 of 30.9 µM and a TGI of over 100 µM. For `NC(CCSCC(F)F)C(=O)O` (configuration not stated), the TGI was over 100 µM. `COC(=O)NC/C=C\c1nc(CC/C=C\C(=O)OC2CC3CC(=O)O[C@@H](/C=C/CC(C)C)C[C@@H]4CCC(C)C(C[C@@H](OC)CC(C2)O3)O4)co1` (some centres not stated) gave a GI50 of 0.091 µM and a TGI of 61.9 µM. For `CC1(C)OC(=O)C=C([O-])O1.CC1(C)OC(=O)C=C([O-])O1.O=c1c(O)c(-c2ccc([O-])cc2[O-])oc2cc(O)cc(O)c12.[Ti+4]`, the TGI was over 100 µM.

The compounds below were run on NCI-H522 lung (assay: inhibition of tumour cell growth, NCI panel, 48 h).
`CN(C)C(=S)/N=c1\ss/c(=N\S(=O)(=O)c2ccccc2)n1-c1ccccc1` gave a TGI of over 100 µM. Compound `N#Cc1c(N)c(C(=O)O)nn(-c2cccc(C(F)(F)F)c2)c1=O` has a TGI of over 100 µM. Compound `CCOC(=O)Cc1nc(/C(C#N)=C/c2ccco2)[nH]c(=O)c1C#N` has a TGI of over 100 µM. For `CC1=Nc2c(ccc3c2C(=O)c2ccccc2C3=O)NC(c2ccncc2)C1` (configuration not stated), the TGI was over 100 µM. `Cc1ccc(C(=O)CC(Sc2cccc(Cl)c2Cl)c2ccc(Cl)cc2)cc1C` (configuration not stated) was tested, and the GI50 was 26.2 µM and the TGI was 61.9 µM. Work on `Oc1c(Br)cc(CN(Cc2cc(Br)c(O)c(Br)c2)C2CCCCC2)cc1Br` yielded a TGI of over 100 µM. In the case of `COc1cc(/C=C\c2ccc(O)cc2)cc(OC)c1OC`, the TGI is reported as over 22.4 µM. `C=C(COC(C)=O)CC(/C=C(\C)CCC=C(C)C)OC(C)=O` (configuration not stated) showed a TGI of over 100 µM. For `Cc1sc(C)c(-c2ccc(CO)o2)c1-c1ccc(CO)o1`, the GI50 was 41.9 µM and the TGI was over 100 µM. For `CC1(C)CCc2cc3c(cc2O1)OCCC3=O`, the TGI was over 100 µM. Work on `Oc1c2c(c(O)c3ccccc13)=N[C@@H](c1ccccc1)[C@H](c1ccccc1)N=2` yielded a TGI of over 100 µM. In the case of `C=C1CC(COc2cc(Cl)nc(N)n2)C1`, the GI50 is reported as 27.6 µM. Work on `CCOc1cccc2nc3cccc(C(=O)NCCN(C)C)c3nc12` yielded a TGI of over 100 µM. Work on `Clc1cc(Cl)c2c(Cl)cc(Cl)c3c2c1N=S=N3` yielded a TGI of over 100 µM. `CN1CCN(C)C1c1cccc(C2N(C)CCN2C)c1` was tested, and the TGI was over 100 µM. `CC(=O)OCCOCBr` showed a TGI of over 100 µM. With `O=C1c2ccccc2-c2c1c1ccccc1c(=O)n2CCNCCCNCCn1c2c(c3ccccc3c1=O)C(=O)c1ccccc1-2` the GI50 was 2.91 µM and the TGI was 14.1 µM. In the case of `CC(O)CN1C(=O)NC(Cc2ccccc2)C1=O` (configuration not stated), the TGI is reported as over 100 µM. `O=C(c1ccccc1)[C@H]1Nc2cnccc2C2c3ccccc3CC21` (some centres not stated) was tested, and the TGI was 8.56 µM. `Cn1c(N)nc2c(nc(OCc3ccccc3)n2C2OC(CO)C(O)C2O)c1=O` (configuration not stated) gave a TGI of over 100 µM. Work on `CN(C)c1nc(-c2cccs2)n2nc(-c3ccc(Cl)cc3)cc2n1` yielded a GI50 of over 100 µM and a TGI of over 100 µM. `COc1cc(/C=C2\CC3C4CC=C5CC(N6CCCC6)CC[C@]5(C)C4CC[C@]3(C)C2OC(C)=O)ccc1OCCN1CCCC1` (some centres not stated) showed a GI50 of 1.69 µM and a TGI of 3.25 µM. For `COc1ccc(C(=O)C(C(=O)CCC(=O)Nc2cccc(C(F)(F)F)c2)c2ccccc2)cc1` (configuration not stated), the TGI was over 100 µM. `O=C1c2ccccc2-c2cccc3ccc(Cc4ccccc4)c1c23` gave a TGI of over 100 µM. In the case of `COC(=O)/C(=N\NC(=S)NN)C(C(=O)C(=O)Nc1ccccc1C(N)=O)c1nc2ccccc2[nH]c1=O` (configuration not stated), the TGI is reported as over 100 µM. Work on `CC/C=C\C/C=C\C1CC(=O)NCCCNCCCCN1` (configuration not stated) yielded a TGI of over 100 µM. `CC1CCCC(C(=O)/C(=C/c2cccc(Cl)c2)C(=O)C(=O)O)C1` (configuration not stated) was tested, and the TGI was 24.7 µM. Compound `CC(=O)c1c(C)n([O-])c2cc(C)c(C)cc2[n+]1=O` has a TGI of over 100 µM. In the case of `N#CC(C#N)=Cc1cccc(Oc2ccccc2)c1`, the TGI is reported as 51.2 µM. `Cc1ncc([N+](=O)[O-])n1CCNC(=O)CCCCn1ccnc1[N+](=O)[O-]` showed a TGI of over 100 µM. `COc1ccc(/C=C/C(=O)c2sc(-n3nc(-c4ccccc4)cc3-c3ccccc3)nc2C)cc1OC` gave a TGI of 53.9 µM. `COC(=O)c1c(O)ccc2[nH]c(C)c(C#N)c12` showed a GI50 of 83.4 µM and a TGI of over 100 µM. `NC(CCSCC(F)F)C(=O)O` (configuration not stated) was tested, and the TGI was over 100 µM. `COC(=O)NC/C=C\c1nc(CC/C=C\C(=O)OC2CC3CC(=O)O[C@@H](/C=C/CC(C)C)C[C@@H]4CCC(C)C(C[C@@H](OC)CC(C2)O3)O4)co1` (some centres not stated) was tested, and the GI50 was under 0.01 µM and the TGI was 87.7 µM. Compound `CC1(C)OC(=O)C=C([O-])O1.CC1(C)OC(=O)C=C([O-])O1.O=c1c(O)c(-c2ccc([O-])cc2[O-])oc2cc(O)cc(O)c12.[Ti+4]` has a TGI of 63 µM.

Each compound was assayed on NCI/ADR-RES ovarian (assay: inhibition of tumour cell growth, NCI panel, 48 h).
`Cc1ccc(C(=O)CC(Sc2cccc(Cl)c2Cl)c2ccc(Cl)cc2)cc1C` (configuration not stated) showed a GI50 of 23.3 µM and a TGI of 48.9 µM. In the case of `Oc1c(Br)cc(CN(Cc2cc(Br)c(O)c(Br)c2)C2CCCCC2)cc1Br`, the TGI is reported as over 100 µM. `Cc1sc(C)c(-c2ccc(CO)o2)c1-c1ccc(CO)o1` gave a GI50 of over 84.4 µM and a TGI of over 100 µM. `O=C(Nc1cc(-c2ccccc2)[nH]n1)c1ccc(Cl)cc1` was tested, and the GI50 was over 100 µM and the TGI was over 100 µM. Compound `C=C1CC(COc2cc(Cl)nc(N)n2)C1` has a GI50 of 33.4 µM. `COc1cc(/C=C2\CC3C4CC=C5CC(N6CCCC6)CC[C@]5(C)C4CC[C@]3(C)C2OC(C)=O)ccc1OCCN1CCCC1` (some centres not stated) gave a GI50 of 2.52 µM and a TGI of 5.2 µM. `CCCS(=O)(=O)c1nc(NC2CC2)cc(-c2ccc3c(ccn3C3CC(C)(C)NC(C)(C)C3)c2)n1` showed a GI50 of 2 µM and a TGI of 4.46 µM. With `Cc1ncc([N+](=O)[O-])n1CCNC(=O)CCCCn1ccnc1[N+](=O)[O-]` the TGI was over 100 µM. `COC(=O)c1c(O)ccc2[nH]c(C)c(C#N)c12` was tested, and the GI50 was over 100 µM and the TGI was over 100 µM. Compound `COC(=O)NC/C=C\c1nc(CC/C=C\C(=O)OC2CC3CC(=O)O[C@@H](/C=C/CC(C)C)C[C@@H]4CCC(C)C(C[C@@H](OC)CC(C2)O3)O4)co1` (some centres not stated) has a GI50 of 38.3 µM and a TGI of over 100 µM.

What follows are compounds tested on OVCAR-5 ovarian (assay: inhibition of tumour cell growth, NCI panel, 48 h).
In the case of `CN(C)C(=S)/N=c1\ss/c(=N\S(=O)(=O)c2ccccc2)n1-c1ccccc1`, the TGI is reported as over 100 µM. Work on `N#Cc1c(N)c(C(=O)O)nn(-c2cccc(C(F)(F)F)c2)c1=O` yielded a TGI of over 100 µM. In the case of `CCOC(=O)Cc1nc(/C(C#N)=C/c2ccco2)[nH]c(=O)c1C#N`, the TGI is reported as over 100 µM. Work on `CC1=Nc2c(ccc3c2C(=O)c2ccccc2C3=O)NC(c2ccncc2)C1` (configuration not stated) yielded a TGI of over 100 µM. `Cc1ccc(C(=O)CC(Sc2cccc(Cl)c2Cl)c2ccc(Cl)cc2)cc1C` (configuration not stated) was tested, and the GI50 was 22.4 µM and the TGI was 59.8 µM. Work on `Oc1c(Br)cc(CN(Cc2cc(Br)c(O)c(Br)c2)C2CCCCC2)cc1Br` yielded a TGI of over 100 µM. With `COc1cc(/C=C\c2ccc(O)cc2)cc(OC)c1OC` the TGI was over 100 µM. `C=C(COC(C)=O)CC(/C=C(\C)CCC=C(C)C)OC(C)=O` (configuration not stated) was tested, and the TGI was over 100 µM. Compound `CC1(C)CCc2cc3c(cc2O1)OCCC3=O` has a TGI of over 100 µM. `Oc1c2c(c(O)c3ccccc13)=N[C@@H](c1ccccc1)[C@H](c1ccccc1)N=2` showed a TGI of over 100 µM. With `O=C1CCn2c([nH]c3cccc4cccc2c43)=N1` the TGI was over 100 µM. `O=C(Nc1cc(-c2ccccc2)[nH]n1)c1ccc(Cl)cc1` was tested, and the GI50 was over 100 µM and the TGI was over 100 µM. `C=C1CC(COc2cc(Cl)nc(N)n2)C1` showed a GI50 of 66.9 µM. In the case of `CCOc1cccc2nc3cccc(C(=O)NCCN(C)C)c3nc12`, the TGI is reported as 5.28 µM. In the case of `Cc1cc(C)nc(NS(=O)(=O)c2ccc(Nc3c4ccccc4nc4c(C(=O)N5CCN(CCOS(C)(=O)=O)CC5)ccc(Cl)c34)cc2)n1`, the TGI is reported as over 100 µM. With `Clc1cc(Cl)c2c(Cl)cc(Cl)c3c2c1N=S=N3` the TGI was over 100 µM. `CN1CCN(C)C1c1cccc(C2N(C)CCN2C)c1` showed a TGI of over 100 µM. For `CC(=O)OCCOCBr`, the TGI was over 100 µM. `O=C1c2ccccc2-c2c1c1ccccc1c(=O)n2CCNCCCNCCn1c2c(c3ccccc3c1=O)C(=O)c1ccccc1-2` gave a GI50 of 0.42 µM and a TGI of 1.1 µM. `CC(O)CN1C(=O)NC(Cc2ccccc2)C1=O` (configuration not stated) showed a TGI of over 100 µM. With `O=C(c1ccccc1)[C@H]1Nc2cnccc2C2c3ccccc3CC21` (some centres not stated) the TGI was 74.1 µM. In the case of `Cn1c(N)nc2c(nc(OCc3ccccc3)n2C2OC(CO)C(O)C2O)c1=O` (configuration not stated), the TGI is reported as over 100 µM. With `CN(C)c1nc(-c2cccs2)n2nc(-c3ccc(Cl)cc3)cc2n1` the GI50 was over 100 µM and the TGI was over 100 µM. With `COc1cc(/C=C2\CC3C4CC=C5CC(N6CCCC6)CC[C@]5(C)C4CC[C@]3(C)C2OC(C)=O)ccc1OCCN1CCCC1` (some centres not stated) the GI50 was 3.01 µM and the TGI was 7.09 µM. `COc1ccc(C(=O)C(C(=O)CCC(=O)Nc2cccc(C(F)(F)F)c2)c2ccccc2)cc1` (configuration not stated) was tested, and the TGI was over 100 µM. With `NC1=NC(=O)C(CC(=O)Nc2ccc([N+](=O)[O-])cc2[N+](=O)[O-])S1` (configuration not stated) the TGI was over 100 µM. For `O=C1c2ccccc2-c2cccc3ccc(Cc4ccccc4)c1c23`, the TGI was over 100 µM.
